Reference: PubChem BioAssay (NCI)
Several values for one entry are separate records, joined by “and”; a condition that tells them apart may be missing. Equal entries are not always repeated.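 Grown in 96-well plates, cells were treated for 48 hours with each compound at five concentrations. Insufficient inhibition: endpoint recorded as highest concentration tested. GI50 is the concentration that inhibits growth by half. TGI denotes the concentration required for complete inhibition of growth.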

Key:
Test in all cases: NCI anticancer screen, dose series, 48 h
HCC-2998 colon = system: HCC-2998 colon
HOP-62 NSCLC = system: HOP-62 NSCLC
HS 578T breast = system: HS 578T breast
MDA-MB-435 = system: MDA-MB-435
MOLT-4 leukemia = system: MOLT-4 leukemia
NCI-H460 lung = system: NCI-H460 lung
NCI/ADR-RES ovarian = system: NCI/ADR-RES ovarian
OVCAR-8 ovarian = system: OVCAR-8 ovarian
SF-295 CNS = system: SF-295 CNS
SK-MEL-2 melanoma = system: SK-MEL-2 melanoma

## CN(CCCCCl)P(=O)(OCCS(=O)(=O)CC(NC(=O)CCC(N)C(=O)O)C(=O)NC(C(=O)O)c1ccccc1)OCC1OC(n2ccc(N)nc2=O)C(F)(F)C1O (stereo not given)
HCC-2998 colon
  GI50: 24.5 µM
  TGI: > 100 µM
HOP-62 NSCLC
  GI50: 0.0861 µM
  TGI: > 85.9 µM
HS 578T breast
  GI50: > 60.4 µM
  TGI: > 100 µM
MDA-MB-435
  GI50: 0.178 µM
  TGI: > 100 µM
MOLT-4 leukemia
  GI50: 0.146 µM
  TGI: > 70.1 µM
NCI-H460 lung
  GI50: 0.104 µM
  TGI: > 100 µM
NCI/ADR-RES ovarian
  GI50: 0.0664 µM
  TGI: > 62.8 µM
OVCAR-8 ovarian
  GI50: < 0.0172 µM
  TGI: > 100 µM
SF-295 CNS
  GI50: 0.334 µM
  TGI: 2.71 µM
SK-MEL-2 melanoma
  GI50: > 63.7 µM
  TGI: > 100 µM

## CCCCCCCCOC(=O)CC[C@@H](C)[C@H]1CC[C@H]2[C@@H]3[C@H](OC(=O)CCN)C[C@@H]4C[C@H](OC(=O)CCN)CC[C@]4(C)[C@H]3C[C@H](OC(=O)CCN)[C@]12C
HCC-2998 colon
  GI50: 13.8 µM
  TGI: 39 µM
HOP-62 NSCLC
  GI50: 2.71 µM
  TGI: 7.14 µM
MDA-MB-435
  GI50: 3.96 µM
  TGI: 18.4 µM
NCI-H460 lung
  GI50: 3.18 µM
  TGI: 10.6 µM
NCI/ADR-RES ovarian
  GI50: 17.2 µM
  TGI: 37.8 µM
OVCAR-8 ovarian
  GI50: 2.14 µM
  TGI: 4.62 µM
SF-295 CNS
  GI50: 3.51 µM
  TGI: 15.9 µM
SK-MEL-2 melanoma
  GI50: 4.88 µM
  TGI: 18.7 µM

## CC(C)c1cnn2c(NCc3ccccc3)cc(NC[C@H]3CCNC[C@@H]3O)nc12
HCC-2998 colon
  GI50: 0.534 µM and 0.645 µM
  TGI: 5.55 µM and 3.51 µM
HOP-62 NSCLC
  GI50: 0.225 µM and 0.348 µM
  TGI: 1.33 µM and 3.13 µM
HS 578T breast
  GI50: 0.839 µM and 1.38 µM
  TGI: 4.63 µM and 5.41 µM
MDA-MB-435
  GI50: 0.343 µM and 0.578 µM
  TGI: 1.74 µM and 2.07 µM
MOLT-4 leukemia
  GI50: 0.361 µM and 0.504 µM
  TGI: 10.2 µM and 14 µM
NCI-H460 lung
  GI50: 0.0583 µM and 0.0817 µM
  TGI: 1.7 µM and 3.31 µM
NCI/ADR-RES ovarian
  GI50: 15.4 µM and 19.7 µM
  TGI: 46.9 µM and > 87.5 µM
OVCAR-8 ovarian
  GI50: 0.555 µM and 0.745 µM
  TGI: 11.6 µM and 8.68 µM
SF-295 CNS
  GI50: 1.15 µM and 0.508 µM
  TGI: 11.1 µM and 9.32 µM
SK-MEL-2 melanoma
  GI50: 0.334 µM and 0.668 µM
  TGI: 1.63 µM and 2.15 µM

## CCOC(=O)c1cc2cc3c4c(c2oc1=O)CCCN4CCC3
HCC-2998 colon
  TGI: > 100 µM
HOP-62 NSCLC
  TGI: > 100 µM
HS 578T breast
  TGI: 89.2 µM
MDA-MB-435
  TGI: 83.5 µM
MOLT-4 leukemia
  TGI: 62.9 µM
NCI-H460 lung
  TGI: > 100 µM
NCI/ADR-RES ovarian
  TGI: 72.9 µM
OVCAR-8 ovarian
  TGI: 72.9 µM
SF-295 CNS
  TGI: > 100 µM
SK-MEL-2 melanoma
  TGI: > 100 µM

## NCCSSCCN
HCC-2998 colon
  TGI: > 100 µM
HOP-62 NSCLC
  TGI: > 100 µM
HS 578T breast
  TGI: > 100 µM
MDA-MB-435
  TGI: > 100 µM
MOLT-4 leukemia
  TGI: > 100 µM
NCI-H460 lung
  TGI: > 100 µM
NCI/ADR-RES ovarian
  TGI: > 100 µM
OVCAR-8 ovarian
  TGI: > 100 µM
SF-295 CNS
  TGI: > 100 µM
SK-MEL-2 melanoma
  TGI: > 100 µM

## O=C(/C=C/C12c3ccccc3C(c3ccccc31)C1C(=O)NC(=O)C12)c1ccc(Cl)cc1Cl (stereo not given)
HCC-2998 colon
  GI50: 1.81 µM
  TGI: 3.41 µM
HOP-62 NSCLC
  GI50: 2.06 µM
  TGI: 4.71 µM
HS 578T breast
  GI50: 2.76 µM
  TGI: 7.01 µM
MDA-MB-435
  GI50: 1.98 µM
  TGI: 4.06 µM
MOLT-4 leukemia
  GI50: 1.77 µM
  TGI: 5.58 µM
NCI-H460 lung
  GI50: 1.85 µM
  TGI: 3.82 µM
OVCAR-8 ovarian
  GI50: 1.88 µM
  TGI: 3.98 µM
SF-295 CNS
  GI50: 1.78 µM
  TGI: 3.63 µM
SK-MEL-2 melanoma
  GI50: 1.9 µM
  TGI: 3.62 µM

## COC(=O)c1cc2c3ccccc3n3c(=O)c4cc5ccc(N(S(=O)(=O)c6ccc(C)cc6)S(=O)(=O)c6ccc(C)cc6)cc5nc4c(n1)c23
HCC-2998 colon
  GI50: > 100 µM
  TGI: > 100 µM
HOP-62 NSCLC
  GI50: 16.1 µM
  TGI: 45 µM
HS 578T breast
  GI50: 29.3 µM
  TGI: > 100 µM
MDA-MB-435
  GI50: > 100 µM
  TGI: > 100 µM
MOLT-4 leukemia
  GI50: 28.6 µM
  TGI: 64.5 µM
NCI-H460 lung
  GI50: > 100 µM
  TGI: > 100 µM
NCI/ADR-RES ovarian
  GI50: > 100 µM
  TGI: > 100 µM
OVCAR-8 ovarian
  GI50: > 100 µM
  TGI: > 100 µM
SF-295 CNS
  GI50: 20.5 µM
  TGI: > 100 µM
SK-MEL-2 melanoma
  GI50: 25.9 µM
  TGI: > 100 µM

## Cc1nc(N)nc2c1CCC(O)S2 (stereo not given)
HCC-2998 colon
  GI50: 9.46 µM
  TGI: 22.2 µM
HOP-62 NSCLC
  GI50: 5.44 µM
  TGI: 18.5 µM
HS 578T breast
  GI50: 10.7 µM
  TGI: > 100 µM
MDA-MB-435
  GI50: 4.51 µM
  TGI: 18.7 µM
MOLT-4 leukemia
  GI50: 2.91 µM
  TGI: 8.36 µM
NCI-H460 lung
  GI50: 3.86 µM
  TGI: 15.3 µM
NCI/ADR-RES ovarian
  GI50: > 100 µM
  TGI: > 100 µM
OVCAR-8 ovarian
  GI50: 3.73 µM
  TGI: 24 µM
SF-295 CNS
  GI50: 14.8 µM
  TGI: 44.3 µM

## CC(=O)c1ccc2c(c1)C1C=CCC1[C@H](c1cc3c(cc1Br)OCO3)N2 (stereo not given in full)
HCC-2998 colon
  GI50: 3.84 µM
  TGI: 10.6 µM
HOP-62 NSCLC
  GI50: 1.9 µM
  TGI: 28.9 µM
HS 578T breast
  GI50: 0.713 µM
  TGI: 2.19 µM
MOLT-4 leukemia
  GI50: 1.03 µM
  TGI: 7.77 µM
NCI-H460 lung
  GI50: 0.954 µM
  TGI: 4.81 µM
NCI/ADR-RES ovarian
  GI50: 1.33 µM
  TGI: 4.71 µM
OVCAR-8 ovarian
  GI50: 1.63 µM
  TGI: 13 µM
SF-295 CNS
  GI50: 0.382 µM
  TGI: 3.07 µM
SK-MEL-2 melanoma
  GI50: 1.22 µM
  TGI: 12.4 µM

## COc1cc(C2SCCCCCCCCCCSC(c3ccc(O)c(OC)c3)SCCCCCCCCCCS2)ccc1O (stereo not given)
HOP-62 NSCLC
  TGI: > 100 µM
MDA-MB-435
  TGI: > 100 µM
MOLT-4 leukemia
  TGI: > 100 µM
NCI/ADR-RES ovarian
  TGI: > 100 µM
OVCAR-8 ovarian
  TGI: > 100 µM
SF-295 CNS
  TGI: > 100 µM
SK-MEL-2 melanoma
  TGI: > 100 µM

## COC12CCC(=O)C=C1c1ccccc1N2C(C)=O (stereo not given)
HCC-2998 colon
  TGI: > 100 µM
HOP-62 NSCLC
  TGI: > 100 µM
MOLT-4 leukemia
  TGI: > 100 µM
NCI-H460 lung
  TGI: > 100 µM
OVCAR-8 ovarian
  TGI: > 100 µM
SF-295 CNS
  TGI: > 100 µM
SK-MEL-2 melanoma
  TGI: > 100 µM

## Cc1nn[n-]n1.N.N.N.N.N.[Cl-].[Co+3]
HCC-2998 colon
  GI50: > 100 µM
  TGI: > 100 µM
HOP-62 NSCLC
  GI50: > 100 µM
  TGI: > 100 µM
MOLT-4 leukemia
  GI50: > 100 µM
  TGI: > 100 µM
NCI-H460 lung
  GI50: > 100 µM
  TGI: > 100 µM
OVCAR-8 ovarian
  GI50: > 100 µM
  TGI: > 100 µM
SF-295 CNS
  GI50: > 100 µM
  TGI: > 100 µM
SK-MEL-2 melanoma
  GI50: > 100 µM
  TGI: > 100 µM

## CCOC(=O)C(Cc1c[nH]c2c(N(CCO)CCO)cccc12)(NC(C)=O)C(=O)OCC
HCC-2998 colon
  GI50: > 1000 µM
  TGI: > 1000 µM
HOP-62 NSCLC
  GI50: > 1000 µM
  TGI: > 1000 µM
HS 578T breast
  GI50: 302 µM
  TGI: > 1000 µM
MDA-MB-435
  GI50: 167 µM
  TGI: 311 µM
NCI-H460 lung
  GI50: 642 µM
  TGI: > 1000 µM
NCI/ADR-RES ovarian
  GI50: > 1000 µM
  TGI: > 1000 µM
OVCAR-8 ovarian
  GI50: > 1000 µM
  TGI: > 1000 µM
SF-295 CNS
  GI50: 148 µM
  TGI: > 1000 µM

## Cc1ccccc1NC(=O)c1cc(-c2ccc([N+](=O)[O-])cc2)nc(=S)[nH]1
HCC-2998 colon
  TGI: > 100 µM
HOP-62 NSCLC
  TGI: > 100 µM
MOLT-4 leukemia
  TGI: > 100 µM
NCI-H460 lung
  TGI: > 100 µM
OVCAR-8 ovarian
  TGI: > 100 µM
SF-295 CNS
  TGI: > 100 µM
SK-MEL-2 melanoma
  TGI: > 100 µM

## N#Cc1ccccc1C(Cl)(Cl)c1cnccn1
HCC-2998 colon
  TGI: > 100 µM
HOP-62 NSCLC
  TGI: > 100 µM
MOLT-4 leukemia
  TGI: 69.7 µM
NCI-H460 lung
  TGI: > 100 µM
OVCAR-8 ovarian
  TGI: 77 µM
SF-295 CNS
  TGI: > 100 µM
SK-MEL-2 melanoma
  TGI: > 100 µM

## O=C1CC2C(=O)c3ccccc3CC2c2ccccc21 (stereo not given)
HOP-62 NSCLC
  TGI: > 100 µM
HS 578T breast
  TGI: > 100 µM
MDA-MB-435
  TGI: 55.3 µM
MOLT-4 leukemia
  TGI: 69.3 µM
NCI-H460 lung
  TGI: > 100 µM
OVCAR-8 ovarian
  TGI: > 100 µM
SF-295 CNS
  TGI: > 100 µM
SK-MEL-2 melanoma
  TGI: > 100 µM

## CC1/C=C/[C@@]2(C)CCC(C(C)(C)O)C2C(O)C[C@](C)(O)/C=C/C1 (stereo not given in full)
HCC-2998 colon
  TGI: > 100 µM
HOP-62 NSCLC
  TGI: > 100 µM
MOLT-4 leukemia
  TGI: > 100 µM
NCI-H460 lung
  TGI: > 100 µM
OVCAR-8 ovarian
  TGI: > 100 µM
SF-295 CNS
  TGI: > 100 µM
SK-MEL-2 melanoma
  TGI: > 100 µM

## CC1=Nc2c(ccc3c2C(=O)c2ccccc2C3=O)NC(c2cccc3c2CCC3)C1 (stereo not given)
HCC-2998 colon
  TGI: > 100 µM
HOP-62 NSCLC
  TGI: > 100 µM
MOLT-4 leukemia
  TGI: > 100 µM
NCI-H460 lung
  TGI: > 100 µM
OVCAR-8 ovarian
  TGI: > 100 µM
SF-295 CNS
  TGI: > 100 µM
SK-MEL-2 melanoma
  TGI: > 100 µM
